According to US20230242530A1, “8-(AZETIDIN-1-YL)-[1,2,4]TRIAZOLO[1,5-A]PYRIDINYL COMPOUNDS, COMPOSITIONS AND METHODS OF USE THEREOF” (Genentech, Inc., priority 2016, published 2023):

Tests used:
[1] = target: T1, isolated recombinant JAK1 kinase domain (Homo sapiens, UniProt P23458); experiment: JAK enzyme assay, JAK1 kinase domain (Caliper LabChip); format: biochemical; details: 1.5 nM JAK1, ATP 25 μM, Morrison tight binding model
T1 construct: isolated recombinant JAK1 and JAK2 kinase domain
Description: (§1) JAK Enzyme Assays were Carried Out as Follows:
(§2) The activity of the isolated recombinant JAK1 and JAK2 kinase domain was measured by monitoring phosphorylation of a peptide derived from JAK3 (Val-Ala-Leu-Val-Asp-Gly-Tyr-Phe-Arg-Leu-Thr-Thr, fluorescently labeled on the N-terminus with 5-carboxyfluorescein) using the Caliper LabChip® technology (Caliper Life Sciences, Hopkinton, Mass.). […] Reactions were incubated at 22 °C in 384-well polypropylene microtiter plates for 30 minutes and then stopped by addition of 25 μL of an EDTA containing solution (100 mM HEPES buffer (pH 7.2), 0.015% Brij-35, 150 mM EDTA), resulting in a final EDTA concentration of 50 mM. After termination of the kinase reaction, the proportion of phosphorylated product was determined as a fraction of total peptide substrate using the Caliper LabChip® 3000 according to the manufacturer's specifications. Ki values were then determined using the Morrison tight binding model (Morrison, J. F., Biochim. Biophys. Acta. 185:269-296 (1969); William, J. W. and Morrison, J. F., Meth. Enzymol., 63:437-467 (1979)) modified for ATP-competitive inhibition [Ki=Ki,app/(1+[ATP]/Km,app)].

[2] = target: T2, isolated recombinant JAK2 kinase domain (Homo sapiens, UniProt O60674); experiment: JAK enzyme assay, JAK2 kinase domain (Caliper LabChip); format: biochemical; details: 0.2 nM JAK2, ATP 25 μM, Morrison tight binding model
T2 construct: isolated recombinant JAK1 and JAK2 kinase domain
Description: as §1, §2

[3] = system: JAK1-dependent STAT6 phosphorylation downstream of IL-13 stimulation in BEAS-2B cells; experiment: JAK1 pathway assay in cell lines: IL-13 p-STAT6 BEAS-2B; format: cell-based; details: BEAS-2B human bronchial epithelial cells, 1 hr compound, IL-13 15 min, MSD readout
Description: JAK1 Pathway Assay in Cell Lines was Carried Out as Follows:
Inhibitor potency (EC50) was determined in cell-based assays designed to measure JAK1 dependent STAT phosphorylation. As noted above, inhibition of IL-4, IL-13, and IL-9 signalling by blocking the Jak/Stat signaling pathway can alleviate asthmatic symptoms in pre-clinical lung inflammation models (Mathew et al., 2001, J Exp Med 193(9): 1087-1096; Kudlacz et. al., 2008, Eur J. Pharmacol 582(1-3): 154-161).
In one assay approach, TF-1 human erythroleukemia cells obtained from the American Type Culture Collection (ATCC; Manassas, Va.) were used to measure JAK1-dependent STAT6 phosphorylation downstream of IL-13 stimulation. Prior to use in the assays, TF-1 cells were starved of GM-CSF overnight in OptiMEM medium (Life Technologies, Grand Island, N.Y.) supplemented with 0.5% charcoal/dextran stripped fetal bovine serum (FBS), 0.1 mM non-essential amino acids (NEAA), and 1 mM sodium pyruvate. The assays were run in 384-well plates in serum-free OptiMEM medium using 300,000 cells per well. In a second assay approach, BEAS-2B human bronchial epithelial cells obtained from ATCC were plated at 100,000 cells per well of a 96-well plate one day prior to the experiment. The BEAS-2B assay was run in complete growth medium (bronchial epithelial basal medium plus bulletkit; Lonza; Basel, Switzerland).
Test compounds were serially diluted 1:2 in DMSO and then diluted 1:50 in medium just before use. Diluted compounds were added to the cells, for a final DMSO concentration of 0.2%, and incubated for 30 mi (for the TF-1 assay) or 1 hr (for the BEAS-2B assay) at 37 QC. Then, cells were stimulated with human recombinant cytokine at their respective EC90 concentrations, as previously determined for each individual lot. Cells were stimulated with IL-13 (R&D Systems, Minneapolis, Minn.) for 15 min at 37 °C. The TF-1 cell reactions were stopped by the direct addition of 10× lysis buffer (Cell Signaling Technologies, Danvers, Mass.), whereas the BEAS-2B cell incubations were halted by the removal of medium and addition of 1× lysis buffer. The resultant samples were frozen in the plates at −80 °C. Compound mediated inhibition of STAT6 phosphorylation was measured in the cell lysates using MesoScale Discovery (MSD) technology (Gaithersburg, Md.). EC50 values were determined as the concentration of compound required for 50% inhibition of STAT phosphorylation relative to that measured for the DMSO control.

T1 sequence (P23458 875-1153 limits assumed): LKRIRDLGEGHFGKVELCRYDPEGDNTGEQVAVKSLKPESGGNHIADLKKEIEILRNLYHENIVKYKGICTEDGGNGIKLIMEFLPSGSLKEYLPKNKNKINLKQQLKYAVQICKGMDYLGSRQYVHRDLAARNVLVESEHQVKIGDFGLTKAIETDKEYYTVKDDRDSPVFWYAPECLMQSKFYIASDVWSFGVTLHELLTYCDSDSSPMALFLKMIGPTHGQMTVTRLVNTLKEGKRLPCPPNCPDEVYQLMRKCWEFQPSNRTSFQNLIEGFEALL
T2 sequence (O60674 849-1124 limits assumed): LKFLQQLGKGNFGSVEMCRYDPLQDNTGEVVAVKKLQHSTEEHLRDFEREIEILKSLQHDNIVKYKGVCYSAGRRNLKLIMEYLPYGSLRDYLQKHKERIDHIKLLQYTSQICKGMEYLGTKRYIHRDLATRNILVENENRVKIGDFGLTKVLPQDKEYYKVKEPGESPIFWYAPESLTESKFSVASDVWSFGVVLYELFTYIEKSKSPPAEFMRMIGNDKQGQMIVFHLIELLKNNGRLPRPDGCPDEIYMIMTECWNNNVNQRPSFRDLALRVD

SMILES | Ki [1] | Ki [2] | EC50 [3]
CCc1cnn(C2(CC#N)CN(c3cccn4nc(Nc5cnn(CC(=O)N6CCC(N7CCOCC7)CC6)c5)nc34)C2)c1 [Example 29, 2-[3-(4-ethylpyrazol-1-yl)-1-[2-[[1-[2-(4-morpholino-1-piperidyl)-2-oxo-ethyl]pyrazol-4-yl]amino]-[1,2,4]triazolo[1,5-a]pyridin-8-yl]azetidin-3-yl]acetonitrile] | 0.6 nM | 2.1 nM | 78 nM
CCc1ccc(C2(CC#N)CN(c3cccn4nc(Nc5cnn(CC(=O)N6CCN(C)CC6)c5)nc34)C2)cc1 [Example 60, 2-[3-(4-ethylphenyl)-1-[2-[[1-[2-(4-methylpiperazin-1-yl)-2-oxo-ethyl]pyrazol-4-yl]amino]-[1,2,4]triazolo[1,5-a]pyridin-8-yl]azetidin-3-yl]acetonitrile] | 0.4 nM | 2.9 nM | 19 nM
N#CCC1(n2cc(C(F)(F)F)cn2)CN(c2cccn3nc(Nc4cn[nH]c4)nc23)C1 [Example 131, 2-[1-[2-(1H-pyrazol-4-ylamino)-[1,2,4]triazolo[1,5-a]pyridin-8-yl]-3-[4-(trifluoromethyl)pyrazol-1-yl]azetidin-3-yl]acetonitrile] | 0.2 nM | 0.4 nM | 43 nM
CCc1cnn(C2(CC#N)CN(c3cccn4nc(Nc5cccc(C(=O)N6CCN(C)CC6)c5)nc34)C2)c1 [Example 75, 2-[3-(4-ethylpyrazol-1-yl)-1-[2-[3-(4-methylpiperazine-1-carbonyl)anilino]-[1,2,4]triazolo[1,5-a]pyridin-8-yl]azetidin-3-yl]acetonitrile] | 0.4 nM | 2 nM | 26 nM
CN1CCN(C(=O)Cn2cc(Nc3nc4c(N5CC(CC#N)(n6cc(C(F)(F)F)cn6)C5)cccn4n3)cn2)CC1 [Example 15] | 2.2 nM | 9.4 nM | > 1000 nM
N#CCC1(c2cccc(Cl)c2)CN(c2cccn3nc(Nc4cnn(CC(=O)N5CCN(C6COC6)CC5)c4)nc23)C1 [Example 69, 2-[3-(3-chlorophenyl)-1-[2-[[1-[2-[4-(oxetan-3-yl)piperazin-1-yl]-2-oxo-ethyl]pyrazol-4-yl]amino]-[1,2,4]triazolo[1,5-a]pyridin-8-yl]azetidin-3-yl]acetonitrile] | 0.3 nM | 0.5 nM | 21 nM
N#CCC1(n2cc(C(F)(F)F)cn2)CN(c2cccn3nc(Nc4ccc5c(c4)CCN(C4COC4)C5)nc23)C1 [Example 121, 2-[1-[2-[[2-(oxetan-3-yl)-3,4-dihydro-1H-isoquinolin-6-yl]amino]-[1,2,4]triazolo[1,5-a]pyridin-8-yl]-3-[4-(trifluoromethyl)pyrazol-1-yl]azetidin-3-yl]acetonitrile] | 0.5 nM | 4.4 nM | 31 nM
CCc1cnn(C2(CC#N)CN(c3cccn4nc(Nc5cn[nH]c5)nc34)C2)c1 [Example 2, 2-[3-(4-ethyl-1H-pyrazol-1-yl)-1-[2-[(1H-pyrazol-4-yl)amino]-[1,2,4]triazolo[1,5-a]pyridin-8-yl]azetidin-3-yl]acetonitrile] | 17.5 nM | 32.8 nM | 
CC(=O)N1CCN(CC2CCN(C(=O)Cn3cc(Nc4nc5c(N6CC(CC#N)(c7cccc(Cl)c7)C6)cccn5n4)cn3)CC2)CC1 [Example 95, 2-[1-[2-[[1-[2-[4-[(4-acetylpiperazin-1-yl)methyl]-1-piperidyl]-2-oxo-ethyl]pyrazol-4-yl]amino]-[1,2,4]triazolo[1,5-a]pyridin-8-yl]-3-(3-chlorophenyl)azetidin-3-yl]acetonitrile] | 0.4 nM | 1.3 nM | 41 nM
Cc1nn(C2(CC#N)CN(c3cccn4nc(Nc5cnn(CC(=O)N6CCN(C)CC6)c5)nc34)C2)cc1-c1ccccc1 [Example 114, formic acid;2-[3-(3-methyl-4-phenyl-pyrazol-1-yl)-1-[2-[[1-[2-(4-methylpiperazin-1-yl)-2-oxo-ethyl]pyrazol-4-yl]amino]-[1,2,4]triazolo[1,5-a]pyridin-8-yl]azetidin-3-yl]acetonitrile] | 0.3 nM | 0.3 nM | 16 nM
CC(C)Sc1cnn(C2(CC#N)CN(c3cccn4nc(Nc5cnn(CC(=O)N6CCN(C)CC6)c5)nc34)C2)c1 [Example 105, 2-[3-(4-isopropylsulfanylpyrazol-1-yl)-1-[2-[[1-[2-(4-methylpiperazin-1-yl)-2-oxo-ethyl]pyrazol-4-yl]amino]-[1,2,4]triazolo[1,5-a]pyridin-8-yl]azetidin-3-yl]acetonitrile] | 0.7 nM | 1.6 nM | 42 nM
CN1CCN(C(=O)Cn2cc(Nc3nc4c(N5CC(CC#N)(c6ccccc6)C5)cccn4n3)cn2)CC1 [Example 101] | 0.3 nM | 0.2 nM | 16 nM
CCc1cnn(C2(CC#N)CN(c3cccn4nc(Nc5cnn(CC(=O)N6CCC(CN7CCOCC7)CC6)c5)nc34)C2)c1 [Example 53, 2-[3-(4-ethylpyrazol-1-yl)-1-[2-[[1-[2-[4-(morpholinomethyl)-1-piperidyl]-2-oxo-ethyl]pyrazol-4-yl]amino]-[1,2,4]triazolo[1,5-a]pyridin-8-yl]azetidin-3-yl]acetonitrile] | 0.9 nM | 0.6 nM | 31 nM
CN1CCN(C(=O)Cn2cc(Nc3nc4c(N5CC(CC#N)(n6cc(Br)cn6)C5)cccn4n3)cn2)CC1 [Example 6, 2-[3-(4-bromo-1H-pyrazol-1-yl)-1-[2-([1-[2-(4-methylpiperazin-1-yl)-2-oxoethyl]-1H-pyrazol-4-yl]amino)-[1,2,4]triazolo[1,5-a]pyridin-8-yl]azetidin-3-yl]acetonitrile] | 9.5 nM | 15.7 nM | 
CN1CCN(C(=O)Cn2cc(Nc3nc4c(N5CC(CC#N)(c6ccc(Cl)cc6)C5)cccn4n3)cn2)CC1 [Example 7, 2-[3-(4-chlorophenyl)-1-[2-[[1-[2-(4-methylpiperazin-1-yl)-2-oxo-ethyl]pyrazol-4-yl]amino]-[1,2,4]triazolo[1,5-a]pyridin-8-yl]azetidin-3-yl]acetonitrile] | 37.2 nM | 50.4 nM | 
CCc1cnn(C2(CC#N)CN(c3nccn4nc(Nc5cn[nH]c5)nc34)C2)c1 [Example 153, 2-(1-(2-((1H-pyrazol-4-yl)amino)-[1,2,4]triazolo[1,5-a]pyrazin-8-yl)-3-(4-ethyl-1H-pyrazol-1-yl)azetidin-3-yl)acetonitrile] | 9 nM | 15.5 nM | 
CCc1cnn(C2(CC#N)CN(c3cccn4nc(Nc5cnn(CCCO)c5)nc34)C2)c1 [Example 3, 2-[3-(4-ethyl-1H-pyrazol-1-yl)-1-(2-[[1-(3-hydroxypropyl)-1H-pyrazol-4-yl]amino]-[1,2,4]triazolo[1,5-a]pyridin-8-yl)azetidin-3-yl]acetonitrile] | 40.2 nM | 64 nM | 
CN1CCN(C(=O)Cn2cc(Nc3nc4c(N5CC(CC#N)(n6cc(I)cn6)C5)cccn4n3)cn2)CC1 [Example 89, 2-[3-(4-iodopyrazol-1-yl)-1-[2-[[1-[2-(4-methylpiperazin-1-yl)-2-oxo-ethyl]pyrazol-4-yl]amino]-[1,2,4]triazolo[1,5-a]pyridin-8-yl]azetidin-3-yl]acetonitrile] | 6.4 nM | 18.8 nM | 
